Reference: patent US20260234150A1, “COMPOUND FOR INHIBITING NLRP3, PREPARATION METHOD, AND USE” (DOVETREE MEDICINES UNUS, INC., priority 2023, published 2026)

Columns and labels:
[1] = target: T1, His6-Flag-TEV-NLRP3 (134-1036) (Homo sapiens, UniProt Q96P20); assay: NLRP3 fluorescence polarization (FP) binding assay, competition with probe NP3-301; conditions: competition with NP3-301 for binding to NLRP3 (134-1036), 30 nM protein
T1 construct: fused on or other part: N-terminal His6 tag, Flag tag and TEV cleavage site
T1 sequence (Q96P20 134-1036 limits assumed): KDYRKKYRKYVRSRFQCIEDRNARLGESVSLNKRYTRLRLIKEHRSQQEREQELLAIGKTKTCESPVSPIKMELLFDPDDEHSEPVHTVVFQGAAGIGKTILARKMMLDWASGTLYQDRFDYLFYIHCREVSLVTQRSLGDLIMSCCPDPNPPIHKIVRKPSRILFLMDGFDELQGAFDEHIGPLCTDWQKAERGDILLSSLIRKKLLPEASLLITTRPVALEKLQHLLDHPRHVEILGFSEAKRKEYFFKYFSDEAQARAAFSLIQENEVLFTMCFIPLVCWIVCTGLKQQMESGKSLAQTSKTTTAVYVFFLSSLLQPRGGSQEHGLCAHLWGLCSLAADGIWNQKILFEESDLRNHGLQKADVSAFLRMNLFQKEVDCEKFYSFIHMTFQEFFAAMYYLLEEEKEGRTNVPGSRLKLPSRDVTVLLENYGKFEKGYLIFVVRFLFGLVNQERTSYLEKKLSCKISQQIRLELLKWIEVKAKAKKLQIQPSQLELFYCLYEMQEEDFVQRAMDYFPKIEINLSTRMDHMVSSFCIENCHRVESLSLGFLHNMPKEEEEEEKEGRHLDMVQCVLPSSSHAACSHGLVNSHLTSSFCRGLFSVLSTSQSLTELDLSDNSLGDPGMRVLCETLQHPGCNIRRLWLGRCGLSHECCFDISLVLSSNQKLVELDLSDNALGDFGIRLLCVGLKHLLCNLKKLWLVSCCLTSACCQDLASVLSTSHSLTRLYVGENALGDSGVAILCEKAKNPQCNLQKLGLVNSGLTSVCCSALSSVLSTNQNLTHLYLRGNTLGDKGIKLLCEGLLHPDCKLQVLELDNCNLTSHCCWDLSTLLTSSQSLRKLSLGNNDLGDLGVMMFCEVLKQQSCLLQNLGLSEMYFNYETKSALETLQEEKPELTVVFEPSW
Protocol: This experiment uses fluorescence polarization technology to detect and evaluate the binding assay.
The fluorescent probe used in this assay is the compound NP3-301 in the Journal of Molecular Biology (2021) 433, 167309, which was synthesized with reference to this literature.
His6-Flag-TEV-NLRP3 (134-1036) protein (SEQ NO. 1) was purchased from Kaihuiruizhi Biotech (Shanghai) Co., Ltd. (ChemPartner), and was customed for expression.
Prepare 1× assay buffer: 50 mM Hepes, pH 7.4, 150 mM NaCl, 2.5 mM MgCl2, 0.005% Tween-20, 1 mM TCEP, 100 μM ATP.
First, 2.5 μL of 4× compound solution was added to a black shallow 384-well plate (Greiner, 784076), the shallow well plate was sealed, and centrifuged at 1000 rpm for 1 min; then 2× NLPR3 protein solution (final concentration of 30 nM) was added, the shallow well plate was sealed, centrifuged at 1000 rpm for 1 min, and incubated at room temperature for 60 min. Finally, 2.5 μL of 4× NP3-301 (final concentration of 0.5 nM) was added, the shallow well plate was sealed, centrifuged at 1000 rpm for 1 min, and incubated at room temperature for 30 min. Envision was used to read the fluorescence polarization values of λex=485+20 nm and kem=535+25 nm. GraphPad Prism 9.5.0 was used to analyze the data, and the IC50 value of the competition between the compound and NP3-301 for binding to His6-Flag-TEV-NLRP3 (134-1036) was fitted by four-parameter logistic. The compounds of the present disclosure have good NLRP3 binding activity, and the test results of some representative compounds are shown in Table 1.

[2] = system: IL-1β secretion of THP-1 cells; assay: Effect of NLRP3 inhibitor on IL-1β secretion of THP-1 cells (AlphaLISA); format: cell-based; conditions: Homo sapiens; PMA, LPS and Nigericin stimulated THP-1 cells, IL-1β in supernatant; read-out: IC50 (nM), THP-1 cells to detect NLRP3 inhibitors
Protocol: This experiment used the PerkinElmer AlphaLISA_human_IL1β kit (AL220 C/F). The detection buffer was RPMI-1640+10FBS. AlphaLISA Immunoassay Buffer, AlphaLISA Anti-IL1β Acceptor beads, Streptavidin (SA)-coated Donor beads, and Biotinylated Antibody Anti-IL1β were all included in the kit.
The density of THP1 cells was adjusted to 4×10^5 cells/mL, PMA (final concentration 50 nM) was added, inoculated into 96-well flat-bottom plates at 200 μL/well, and stimulated overnight at 37° C., 5% CO2 (try to <16h). The next day, the supernatant was discarded, and the flat washed twice with DPBS ([…]/time). Then LPS solution (final concentration of 100 ng/ml) was added at 198 μL/well, incubated at 37° C., 5% CO2 for 3h. 1 μL of the corresponding concentration of compounds was added to each well according to the experimental MAP, incubated at 37° C., 5% CO2 for 1 h. 1 μL Nigericin (final concentration of […]) was added to each well, incubated overnight at 5% CO2 (>18h). On the third day, 5 μL of supernatant was taken, diluted 20 times, and the content of IL-Iβ in the supernatant was detected by Human Interleukin 1 beta (IL1β) Kit. Envision was used to read the AlphaLISA test value of Ex=680/[…]. GraphPad Prism 9.5.0 was used to analyze the data, and the IC50 value of the compound for IL-Iβ antagonism was fitted by four-parameter Logistic.

Structure (SMILES)	IC50 [1] [nM]	IC50 [2] [nM]
Cc1cc(C(F)(F)F)cc(O)c1-c1ccc2[nH]c(CC(N)=O)nc2n1 [Compound 5]	≤ 100	100 to 500
Cc1cc(C(F)(F)F)cc(O)c1-c1ccc2[nH]c(NCC(C)(C)O)nc2n1 [Compound 6]	–	100 to 500
Cc1cc(C(F)(F)F)cc(O)c1-c1ccc2[nH]c(C3CCCNC3)nc2n1 (stereo not drawn) [Compound 9]	≤ 100	50 to 100
CCN1CCCC(c2nc3nc(-c4c(C)cc(C(F)(F)F)cc4O)ccc3[nH]2)C1 (stereo not drawn) [Compound 10]	≤ 100	100 to 500
CCN1CCC[C@@H](n2ccc3cc(-c4c(C)cc(C(F)(F)F)cc4O)nnc32)C1 [Compound 11-a]	≤ 100	< 50
CCN1CCCC(n2ccc3cc(-c4c(C)cc(C(F)(F)F)cc4O)nnc32)C1 (stereo not drawn) [Compound 11]	≤ 100	< 50
CCN1CCC[C@@H](N2CC(=O)Nc3cc(-c4c(C)cc(C(F)(F)F)cc4O)nnc32)C1 [Compound 12-a]	≤ 100	< 50
CCN1CCCC(N2CC(=O)Nc3cc(-c4c(C)cc(C(F)(F)F)cc4O)nnc32)C1 (stereo not drawn) [Compound 12]	≤ 100	100 to 500
Cc1cc(C(F)(F)F)cc(O)c1-c1ccc2oc(N)nc2n1 [Compound 14]	≤ 100	50 to 100
Cc1cc(C(F)(F)F)cc(O)c1-c1ccc2oc(NC[C@@H]3COCCN3C(=O)C(F)(F)F)nc2n1 [Compound 247]	≤ 100	50 to 100
Cc1cc(C(F)(F)F)cc(O)c1-c1ccc2oc(NC[C@@H]3COCCN3C(=O)C(C)C)nc2n1 [Compound 248]	≤ 100	100 to 500
Cc1cc(C(F)(F)F)cc(O)c1-c1ccc2oc(NC[C@@H]3COCCN3C(=O)C(F)F)nc2n1 [Compound 249]	≤ 100	100 to 500
CCC(=O)N1CCOC[C@H]1CNc1nc2nc(-c3c(C)cc(C(F)(F)F)cc3O)ccc2o1 [Compound 250]	≤ 100	100 to 500
CC(=O)N1CCOC[C@H]1CNc1nc2nc(-c3c(C)cc(Cl)cc3O)ccc2o1 [Compound 253]	≤ 100	< 50
Cc1cc(C(F)(F)F)cc(O)c1-c1ccc2oc(NC[C@@H]3COCCN3C(=O)C3CC3)nc2n1 [Compound 257]	≤ 100	< 50
Cc1cc(C(F)(F)F)cc(O)c1-c1ccc2oc(NC[C@@H]3COCCN3S(=O)(=O)C3CC3)nc2n1 [Compound 260]	≤ 100	< 50
Cc1cc(C(F)(F)F)cc(O)c1-c1ccc2oc(N3CCOC[C@H]3C)nc2n1 [Compound 371]	≤ 100	50 to 100
Oc1cc(Cl)cc(O)c1-c1ccc2oc(N3CCOCC3)nc2n1 [Compound 376]	≤ 100	< 50
Cc1cc(C(F)(F)F)cc(O)c1-c1ccc2oc(N3CC4CCC(C3)O4)nc2n1 [Compound 381]	≤ 100	100 to 500
Cc1cc(Cl)cc(O)c1-c1ccc2oc(N3CCS(=O)(=O)CC3)nc2n1 [Compound 387]	≤ 100	50 to 100
CCS(=O)(=O)N1CCN(c2nc3nc(-c4c(C)cc(C(F)(F)F)cc4O)ccc3o2)CC1 [Compound 388]	≤ 100	50 to 100
Cc1cc(C(F)(F)F)cc(O)c1-c1ccc2oc(N3CCN(S(C)(=O)=O)CC3)nc2n1 [Compound 390]	≤ 100	< 50
Cc1cc(C(F)(F)F)cc(O)c1-c1ccc2oc(N3CCN(S(=O)(=O)C4CC4)CC3)nc2n1 [Compound 392]	≤ 100	< 50
CCS(=O)(=O)N1CCN(c2nc3nc(-c4c(C)cc(C(F)(F)F)cc4O)ccc3o2)C[C@@H]1C [Compound 394]	≤ 100	50 to 100
CCN1C[C@H](F)C[C@@H](Nc2nc3nc(-c4c(C)cc(C(F)(F)F)cc4O)ccc3o2)C1 [Compound 397]	≤ 100	100 to 500
Cc1cc(C(F)(F)F)cc(O)c1-c1ccc2oc(N[C@@H]3CCCN(C4CC4)C3)nc2n1 [Compound 399]	≤ 100	< 50

Structure (SMILES)	IC50 [1] [nM]	IC50 [2] [nM]
Cc1cc(C(F)(F)F)cc(O)c1-c1ccc2oc(N[C@@H]3CCCN(C(C)C)C3)nc2n1 [Compound 400]	≤ 100	< 50
Cc1cc(C(F)(F)F)cc(O)c1-c1ccc2oc(N[C@@H]3CCCN(CCO)C3)nc2n1 [Compound 404]	≤ 100	< 50
Cc1cc(C(F)(F)F)cc(O)c1-c1ccc2oc(NC[C@@H](C)O)nc2n1 [Compound 413]	≤ 100	50 to 100
Cc1cc(C(F)(F)F)cc(O)c1-c1ccc2nc(N3CCS(=O)(=O)CC3)nn2n1 [Compound 422]	≤ 100	100 to 500
Cc1cc(C(F)(F)F)cc(O)c1-c1ccc2nc(N3CCOCC3)nn2n1 [Compound 423]	≤ 100	100 to 500
Cc1cc(C(F)(F)F)cc(O)c1-c1cc(C)c2nc(N3CCOCC3)nn2n1 [Compound 424]	≤ 100	< 50
Cc1cc(C(F)(F)F)cc(O)c1-c1ccn2nc(N3CCOCC3)nc2n1 [Compound 426]	≤ 100	< 50
CCN1CCC[C@@H](Nc2nc3ccc(-c4c(C)cc(C(F)(F)F)cc4O)nn3n2)C1 [Compound 439]	≤ 100	< 50
Cc1cc(C(F)(F)F)cc(O)c1-c1cc(C)n2nc(N3CCOCC3)nc2n1 [Compound 440]	≤ 100	50 to 100
CC(=O)NC[C@@H]1COCCN1c1nc2nc(-c3c(C)cc(C(F)(F)F)cc3O)cc(C)n2n1 [Compound 441]	≤ 100	< 50
CC(=O)NC[C@@H]1COCCN1c1nc2c(C)cc(-c3c(C)cc(C(F)(F)F)cc3O)nn2n1 [Compound 442]	≤ 100	< 50
Cc1cc(C(F)(F)F)cc(O)c1-c1cc(C)n2nc(N[C@@H]3CCCN(C)C3)nc2n1 [Compound 443]	≤ 100	< 50
Cc1cc(C(F)(F)F)cc(O)c1-c1ccn2nc(N[C@@H]3CCCN(C)C3)nc2n1 [Compound 444]	≤ 100	< 50
Cc1cc(C(F)(F)F)cc(O)c1-c1ccc2nc(N[C@@H]3CCCN(C)C3)nn2n1 [Compound 445]	≤ 100	< 50
Cc1cc(C(F)(F)F)cc(O)c1-c1cc(C)c2nc(N[C@@H]3CCCN(C)C3)nn2n1 [Compound 446]	≤ 100	< 50
CCN1CCC[C@@H](Nc2nc3c(C)cc(-c4c(C)cc(C(F)(F)F)cc4O)nn3n2)C1 [Compound 447]	≤ 100	< 50
CCN1CCC[C@@H](Nc2nc3nc(-c4c(C)cc(C(F)(F)F)cc4O)ccn3n2)C1 [Compound 448]	≤ 100	< 50
CC(=O)N1CCOC[C@H]1CNc1nc2nc(-c3c(C)cc(C(F)(F)F)cc3O)cc(C)c2o1 [Compound 451]	≤ 100	50 to 100
Cc1cc(C(F)(F)F)cc(O)c1-c1ccn2nc(N[C@@H]3CCCN(CCO)C3)nc2n1 [Compound 455]	≤ 100	–
Cc1cc(C(F)(F)F)cc(O)c1-c1cc(C)c2nc(N[C@@H]3CCCN(CCO)C3)nn2n1 [Compound 456]	≤ 100	< 50
CC(=O)N1CCOC[C@H]1CNc1nc2nc(-c3c(C)cc(C(F)(F)F)cc3O)cc(C)n2n1 [Compound 457]	100 to 500	–
Cc1cc(-c2ccc(C(F)(F)F)cc2O)nc2nc(N3CCOCC3)nn12 [Compound 458]	≤ 100	–
Cc1cc(C(F)(F)F)c(Cl)c(O)c1-c1ccn2nc(N3CCOCC3)nc2n1 [Compound 459]	> 1000	–
Cc1cc(C(F)(F)F)cc(O)c1-c1cc(C)n2nc(N[C@H]3CCCN(CCO)C3)nc2n1 [Compound 460]	≤ 100	< 50
CC(=O)N1CCC[C@@H](Nc2nc3nc(-c4c(C)cc(C(F)(F)F)cc4O)ncc3[nH]2)C1 [Compound 461]	100 to 500	–
